We go through one molecule from PMC9169222, “Impedance-Based Phenotypic Readout of Transporter Function: A Case for Glutamate Transporters” (Frontiers in Pharmacology, 2022).

pEC50: −log10 of the molar value. Entries after “also recorded” stand apart in the source; their conditions may differ. Structures can show the parent of a compound that is named as a salt. Where two headings read alike, the source gives them in different places. Where only a bound is given, the exact number is not on record here.

The test system of test [1] is 1321N1 cells. In words: Impedance-based phenotypic assay on 1321N1 cells. In kind it is cell-based, human. Particulars: 1 mM. As to the method:
Label-free whole-cell assays, based on cell-induced changes in impedance, were performed using the xCELLigence real-time cell analyzer (RTCA) system (ACEA Biosciences, San Diego, CA, United States) as described previously ([Vlachodimou et al., 2019]; [Sijben et al., 2021a], [2021b]). In short, cells are cultured in medium on gold-plated electrodes in microwell E-plates. Per well impedance is continuously measured at 10 kHz and is converted to the unitless parameter Cell Index (CI) by the following formula: CI=(Zi−Z0)Ω/15Ω where Zi is the impedance at any given time point and Z0 is the baseline impedance measured at the start of each experiment ([Kho et al., 2015]).
Assays were performed at 37°C and 5% CO2 in 96-well PET E-plates in a total volume of 100 µl per well. Prior to cell seeding, the baseline impedance (Z0) was measured in the recording station in 40 µl (two compound additions) or 45 µl (one compound addition) medium in the presence (+) or absence (−) of 1 μg/ml dox. […]
Experimental data was recorded using RTCA Software v2.0 or v2.1.1 (ACEA Biosciences). […] The potency values of substrates and inhibitory potencies of EAAT inhibitors were determined by fitting the net AUC data to a sigmoidal concentration-effect curve with a variable slope.

Test [2] addresses T1, EAAT2 (JumpIn-EAAT2 cells) (Homo sapiens, UniProt P43004).
T1 construct: expressed in transfected cells; host or cells: Jump In T-REx HEK 293
Description: Impedance-based phenotypic assay (xCELLigence) on JumpIn-EAAT2 cells. In kind it is cell-based. Particulars: net AUC 0–120 min, read-out: Substrate pEC50 ± SEM (converted).

Test [3] concerns JumpIn-EAAT1 cells. In words: Targeted metabolomics (LC-MS/MS) of intracellular metabolite levels. In kind it is cell-based, human. Conditions: 1 mM substrate, 2 h. On the procedure: JumpIn-EAAT1 cells were plated at 150,000 cells/well in 24 well poly-L-lysine coated plates in culture medium in the absence (−dox) or presence (+dox) of 1 μg/ml doxycycline and grown at 37°C and 5% CO2. After 24 h, the medium was refreshed and cells were pretreated with vehicle (PBS/DMSO) or 10 µM TFB-TBOA. […] For lysis, cells were first gently washed with room temperature bicarbonate buffer (91 mM NH4HCO3, pH 7.4). […] The cells were then scraped and transferred to a pre-cooled Eppendorf tube and immediately snap frozen in liquid nitrogen. Samples were thawed on ice before being centrifuged at 16,000 × g for 10 min at 4°C. The clarified metabolite-containing supernatants were moved into a high-performance liquid chromatography vial and stored at −80°C until LC-MS/MS analysis.
Cell extracts were dried using a nitrogen evaporator. The dry residue was reconstituted in 16 µl H2O and 4 µl of sample extract was used for LC-MS/MS analysis. […] The column was maintained at a temperature of 40°C and 4 µl of sample was injected per run. The mobile phase A was 3% MeOH (v/v), 10 mM tributylamine, 15 mM acetic acid in H2O, and mobile phase B was 10 mM tributylamine, 15 mM acetic acid in MeOH. The gradient elution with a flow rate 0.25 mL/min was performed for a total time of 24 min. […] The metabolites of interest were detected using a dynamic Multiple Reaction Monitoring (MRM) mode. The MassHunter 10.0 software (Agilent Technologies) was used for the data processing. Ten-point linear calibration curves with internal standardization were constructed for the quantification of metabolites.
Volcano plots were generated to visualize the significant up- or downregulation of intracellular metabolite concentrations. The log2 fold change upon substrate addition is plotted against the −log10 adjusted p-value.

The subject of test [4] is EAAT1-3. Conditions: read-out: Steady-state affinities (Km), ref Arriza et al., 1994, Tzingounis and Wadiche, 2007; cited from earlier work.
Test [5] deals with T2, EAAT1 (JumpIn-EAAT1-mock cells) (Homo sapiens, UniProt P43003).
T2 construct: expressed in transfected cells; host or cells: Jump In T-REx HEK 293
In words: Impedance-based TRACT assay (xCELLigence) on mock-transfected JumpIn-EAAT1 cells. In kind it is cell-based. Conditions: no inhibitor; for EC50: +dox. On the procedure: In short, cells are cultured in medium on gold-plated electrodes in microwell E-plates.
Assays were performed at 37°C and 5% CO2 in 96-well PET E-plates in a total volume of 100 µl per well. Prior to cell seeding, the baseline impedance (Z0) was measured in the recording station in 40 µl (two compound additions) or 45 µl (one compound addition) medium in the presence (+) or absence (−) of 1 μg/ml dox. All compounds were diluted in phosphate-buffered saline (PBS) and added in 5 µl per addition using a VIAFLO 96 handheld electronic 96 channel pipette (INTEGRA Biosciences, Tokyo, Japan). When DMSO was used as a solvent for a compound, the final amount of DMSO was kept at 0.1% per well and was included in the vehicle (PBS/DMSO). All conditions were tested at two technical replicates per plate.
Transiently transfected JumpIn-EAAT1 cells were detached using only PBS/EDTA. The E-plate was left to rest at room temperature for 30 min prior to replacement in the recording station at 37°C and 5% CO2. Cell growth was recorded overnight for 22 h. If a pretreatment was required for the experiment, the cells were pretreated after 22 h with either a concentration of inhibitor or vehicle (PBS/DMSO) and cells were monitored for 60 min. For GPCR antagonist experiments, a maximum concentration of LY341495 (1 µM) was used. […] After the pretreatment, cells were stimulated with substrate or vehicle (PBS). […] After stimulation the impedance was measured for at least 2 h. […] Properly washed plates were re-used up to two times.
Experimental data was recorded using RTCA Software v2.0 or v2.1.1 (ACEA Biosciences). In the RTCA Software CI values were normalized to the time point prior to substrate/agonist stimulation resulting in normalized Cell Index (nCI) values. The nCI data were exported and subsequent analyses and data visualizations were done using GraphPad Prism v9 (GraphPad Software, San Diego, CA, United States). […] The potency values of substrates and inhibitory potencies of EAAT inhibitors were determined by fitting the net AUC data to a sigmoidal concentration-effect curve with a variable slope.

T2 sequence (P43003 whole entry, the tested form may be a part): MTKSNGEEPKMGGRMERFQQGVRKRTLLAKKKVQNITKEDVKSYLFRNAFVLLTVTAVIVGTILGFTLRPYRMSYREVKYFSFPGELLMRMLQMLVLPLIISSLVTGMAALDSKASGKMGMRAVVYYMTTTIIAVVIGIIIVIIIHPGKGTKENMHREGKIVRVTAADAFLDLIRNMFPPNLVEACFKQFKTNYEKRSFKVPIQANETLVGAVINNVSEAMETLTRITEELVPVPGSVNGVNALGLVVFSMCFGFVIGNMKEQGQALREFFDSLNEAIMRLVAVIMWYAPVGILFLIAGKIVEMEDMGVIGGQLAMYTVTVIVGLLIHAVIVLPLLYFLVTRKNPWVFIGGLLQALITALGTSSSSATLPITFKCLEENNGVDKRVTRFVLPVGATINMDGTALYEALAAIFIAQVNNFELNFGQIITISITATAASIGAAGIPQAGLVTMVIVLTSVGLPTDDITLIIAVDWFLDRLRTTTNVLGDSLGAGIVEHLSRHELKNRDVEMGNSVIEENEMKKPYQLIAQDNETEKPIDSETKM
T1 sequence (P43004 whole entry): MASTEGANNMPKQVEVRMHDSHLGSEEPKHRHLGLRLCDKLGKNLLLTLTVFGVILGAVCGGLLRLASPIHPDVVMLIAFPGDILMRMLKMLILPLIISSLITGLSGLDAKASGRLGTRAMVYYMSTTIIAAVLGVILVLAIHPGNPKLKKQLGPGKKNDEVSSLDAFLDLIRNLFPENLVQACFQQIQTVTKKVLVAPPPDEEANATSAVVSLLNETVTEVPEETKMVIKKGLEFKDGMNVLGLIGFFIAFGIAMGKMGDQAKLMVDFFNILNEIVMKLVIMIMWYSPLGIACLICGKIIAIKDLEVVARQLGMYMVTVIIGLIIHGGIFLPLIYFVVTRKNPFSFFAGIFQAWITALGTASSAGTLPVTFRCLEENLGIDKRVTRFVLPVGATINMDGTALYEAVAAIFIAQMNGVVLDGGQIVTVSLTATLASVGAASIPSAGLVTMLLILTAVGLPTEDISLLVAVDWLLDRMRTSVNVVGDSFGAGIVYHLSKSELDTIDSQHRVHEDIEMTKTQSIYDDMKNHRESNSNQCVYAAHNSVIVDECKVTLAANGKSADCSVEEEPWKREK

On to `N[C@@H](CCC(=O)O)C(=O)O` [L-glutamate, L-glutamic acid monosodium salt monohydrate], for which the “Cellular response within 180 min” value in test [1] is “did not show a substantial cellular response”. Also, in test [2] (JumpIn-EAAT2, +dox), the EC50 was 251 µM. Also, in test [2] (JumpIn-EAAT2, −dox), the EC50 was 158 µM. Moreover, in test [3], the “Intracellular cAMP levels” value was “significant elevations”; the Intracellular glutamine level result is listed as “not significantly altered”; the “Levels of TCA cycle intermediates and related metabolites” value is on record as “increased”. In addition, in test [3] (+dox), the “Increase of intracellular aspartate” value is 5 fold, the “Increase of intracellular glutamate” value worked out at 5 fold and the Intracellular taurine level entry was “significantly reduced; also recorded: significant decrease”. The Km in test [4] was around 20 µM. In addition, in test [5] (net AUC 0–15 min, read-out: Substrate pEC50 ± SEM (AUC = 0–15 min) (converted)), the EC50 was above 1000 µM. The EC50 in test [5] (net AUC 0–120 min, read-out: Substrate pEC50 ± SEM (AUC = 0–120 min) (converted)) is 316 µM. The molecule further gave a pEC50 in test [5] (Substrate pEC50 ± SEM (AUC = 0–120 min), −dox, net AUC 0–120 min) of 4.00.
